According to patent US20110118309A1, “USE OF HDAC INHIBITORS FOR THE TREATMENT OF HODGKIN'S DISEASE” (priority 2008, published 2011):
pIC50: −log10 of the molar value.

What was measured:
CTCL mouse model = experiment: CTCL mouse model; type: in vivo
Source text: (§1) Bcl2 may be a patient stratification marker

[1] = tested on: E[…]-myc mouse lymphoma model; experiment: E[…]-myc mouse lymphoma model; type: in vivo
Source text: as §1

[2] = tested on: Cell lines of mantle cell and follicular lymphoma; experiment: Sensitivity of mantle cell and follicular lymphoma cell lines; type: cell-based
Source text: as §1

CTCL cell lines = experiment: Sensitivity of CTCL cell lines; type: cell-based
Source text: as §1

[3] = tested on: Hodgkin lymphoma cell lines, RPMI6666, HD-MY-Z, and L428; experiment: Proliferation and viability of 3 Hodgkin lymphoma cell lines; type: cell-based; conditions: range over 3 HL cell lines; units printed in the value (picomolar, nanomolar)
Source text: as §1

L-428 = experiment: Single agent anti-tumor activity of LBH589 in Hodgkins Lymphoma cell lines in vitro (growth inhibition and cell kill); type: cell-based; conditions: L-428, Hodgkins Lymphoma
Source text: as §1
(§2) Single agent anti-tumor activity of LBH589 in Hodgkins Lymphoma cell lines in vitro is outlined in table I.

HD-MY-Z = experiment: as above; type: cell-based
Source text: as §1, §2

RPMI 6666 = experiment: as above; type: cell-based; conditions: RPMI 6666, Hodgkins Lymphoma
Source text: as §1, §2

[4] = Homo sapiens, read-out: IC50: Concentration of LBH589 required to inhibit growth of cell line by 50%

In the case of Cc1[nH]c2ccccc2c1CCNCc1ccc(/C=C/C(=O)NO)cc1 [LBH589, N-hydroxy-3-[4-[[[2-(2-methyl-1H-indol-3-yl)-ethyl]-amino]methyl]phenyl]-2E-2-propenamide], the tumor regression (CTCL mouse model) was “profound tumor regression”, the regression of lymphoma [1] was “produces regression” and the survival [1] was “extends survival”. The “sensitivity to LBH589” value [2] was “extreme sensitivity”, the “sensitivity to LBH589” value (CTCL cell lines) was “extremely sensitive” and the pIC50 [3] was 7.30 to 9.70. For the same compound, the pIC50 (L-428; [4]) was 7.98, the LD90: Concentration of LBH589 required to kill a cell line population by 90% (L-428) was 57.5 nM and the “LD90: Concentration of LBH589 required to kill a cell line population by 90%” value (HD-MY-Z; in nM) was >10,000. The pIC50 (HD-MY-Z; read-out: IC50: Concentration of LBH589 required to inhibit growth of cell line by 50%) was 7.29, the pIC50 (RPMI 6666; [4]) was 9.70 and the “LD90: Concentration of LBH589 required to kill a cell line population by 90%” value (RPMI 6666; in nM) was 274.7.
